Key:
[1] = target: T1, Melanocyte-stimulating hormone receptor (Homo sapiens, UniProt Q01726); assay: Activity against human MC1R by percentage of cAMP accumulation at 10 uM; type: functional
Target sequence in this assay (Q01726 whole entry, looked up): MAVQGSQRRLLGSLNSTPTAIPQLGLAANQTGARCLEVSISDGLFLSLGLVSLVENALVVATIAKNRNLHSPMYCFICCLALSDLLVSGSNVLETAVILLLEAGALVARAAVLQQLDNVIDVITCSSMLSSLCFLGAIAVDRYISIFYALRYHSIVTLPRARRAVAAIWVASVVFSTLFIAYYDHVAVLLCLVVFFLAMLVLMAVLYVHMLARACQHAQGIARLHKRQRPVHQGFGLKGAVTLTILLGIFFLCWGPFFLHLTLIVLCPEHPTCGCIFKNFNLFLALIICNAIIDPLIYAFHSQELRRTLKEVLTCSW

[2] = target: T2, Melanocortin receptor 3 (Homo sapiens, UniProt P41968); assay: Activity against human MC3R by percentage of cAMP accumulation at 10 uM; type: functional
[3] = target: T3, Melanocortin receptor 5 (Homo sapiens, UniProt P33032); assay: Activity against human MC5R by percentage of cAMP accumulation at 10 uM; type: functional
T3 sequence (P33032 whole entry): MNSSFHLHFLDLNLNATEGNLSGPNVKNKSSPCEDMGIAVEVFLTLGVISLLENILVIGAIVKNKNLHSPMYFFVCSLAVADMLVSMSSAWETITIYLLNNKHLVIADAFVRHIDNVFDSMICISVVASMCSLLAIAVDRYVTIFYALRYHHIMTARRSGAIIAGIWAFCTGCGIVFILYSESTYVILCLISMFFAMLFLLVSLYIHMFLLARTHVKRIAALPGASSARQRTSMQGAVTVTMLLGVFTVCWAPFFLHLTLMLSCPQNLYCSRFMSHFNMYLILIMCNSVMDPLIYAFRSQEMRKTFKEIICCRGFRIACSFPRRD

[4] = target: T4, Melanocortin receptor 4 (Homo sapiens, UniProt P32245); assay: Activity against human MC4R by cAMP accumulation; type: functional
T4 sequence (P32245 whole entry): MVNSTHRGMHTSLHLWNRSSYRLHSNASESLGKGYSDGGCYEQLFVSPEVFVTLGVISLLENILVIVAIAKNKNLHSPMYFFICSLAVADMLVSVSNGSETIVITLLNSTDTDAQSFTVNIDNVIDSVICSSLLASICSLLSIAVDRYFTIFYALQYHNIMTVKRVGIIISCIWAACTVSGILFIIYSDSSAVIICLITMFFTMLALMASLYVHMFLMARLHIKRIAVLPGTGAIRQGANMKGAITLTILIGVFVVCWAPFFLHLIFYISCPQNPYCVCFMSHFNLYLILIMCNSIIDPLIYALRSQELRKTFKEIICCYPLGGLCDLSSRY

[5] = target: T2, Melanocortin receptor 3; assay: Activity against human MC3R by cAMP accumulation; type: functional
[6] = target: T4, Melanocortin receptor 4; assay: Activity against human MC4R by percentage of cAMP accumulation at 10 uM; type: functional
[7] = target: T3, Melanocortin receptor 5; assay: Activity against human MC5R by cAMP accumulation; type: functional
[8] = target: T4, Melanocortin receptor 4; assay: Displacement of [125I]NDP-alpha-MSH from human MC4R expressed in CHO cells; type: cell-based
[9] = target: T3, Melanocortin receptor 5; assay: Displacement of [125I]NDP-alpha-MSH from human MC5R expressed in CHO cells; type: cell-based
[10] = target: T2, Melanocortin receptor 3; assay: Displacement of [125I]NDP-alpha-MSH from human MC3R expressed in CHO cells; type: cell-based
[11] = target: T1, Melanocyte-stimulating hormone receptor; assay: Activity against human MC1BR by cAMP accumulation; type: functional
Target sequence in this assay (Q01726 whole entry): as the sequence (Q01726 whole entry, looked up) above

[12] = target: T1, Melanocyte-stimulating hormone receptor; assay: Displacement of [125I]NDP-alpha-MSH from human MC1BR expressed in CHO cells; type: cell-based
Target sequence in this assay (Q01726 whole entry): as the sequence (Q01726 whole entry, looked up) above

T2 sequence (P41968 whole entry): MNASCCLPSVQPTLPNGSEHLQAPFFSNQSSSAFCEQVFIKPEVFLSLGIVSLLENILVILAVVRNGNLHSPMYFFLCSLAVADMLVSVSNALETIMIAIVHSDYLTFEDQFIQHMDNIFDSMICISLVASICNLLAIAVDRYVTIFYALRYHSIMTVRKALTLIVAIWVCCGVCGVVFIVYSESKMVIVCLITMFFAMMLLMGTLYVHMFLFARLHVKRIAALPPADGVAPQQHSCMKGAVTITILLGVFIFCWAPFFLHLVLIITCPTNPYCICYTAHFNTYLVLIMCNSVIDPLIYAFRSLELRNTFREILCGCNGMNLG

`O=C(N[C@H](Cc1ccc(Cl)cc1)C(=O)N1CCC(Cn2cncn2)(C2CCCCC2)CC1)[C@H]1Cc2ccccc2CN1` gave a %max [1] of 95%, a %max [2] of 32% and a %max [3] of 61%.

Work on `C[C@@H]1COC(=O)N1CC1(C2CCCCC2)CCN(C(=O)[C@@H](Cc2ccc(Cl)cc2)NC(=O)[C@H]2Cc3ccccc3CN2)CC1` yielded an EC50 [4] of 1.3 nM, an EC50 [5] of 370 nM and a %max [6] of 68%. It also gave an EC50 [7] of 400 nM, an IC50 [8] of 1.3 nM and an IC50 [9] of 110 nM. The %max [1] was 40%, the %max [2] was 15% and the IC50 [10] was 210 nM. For the same molecule, the EC50 [11] was 1300 nM, the IC50 [12] was 1700 nM and the %max [3] was 51%.

For `CC(C)N(CC1(C2CCCCC2)CCN(C(=O)[C@@H](Cc2ccc(Cl)cc2)NC(=O)[C@H]2Cc3ccccc3CN2)CC1)S(C)(=O)=O`, the EC50 [4] was 5.6 nM, the EC50 [5] was 590 nM and the %max [6] was 86%. The EC50 [7] was 800 nM, the IC50 [8] was 2.1 nM and the IC50 [9] was 200 nM. The %max [1] was 39%, the %max [2] was 23% and the IC50 [10] was 380 nM. For the same molecule, the EC50 [11] was 1500 nM, the IC50 [12] was 1300 nM and the %max [3] was 48%.

With `O=C(N[C@H](Cc1ccc(Cl)cc1)C(=O)N1CCC(CN2CCNC2=O)(C2CCCCC2)CC1)[C@H]1Cc2ccccc2CN1` the EC50 [4] was 16 nM, the EC50 [5] was 880 nM and the %max [6] was 82%. The EC50 [7] was 480 nM, the IC50 [8] was 4.8 nM and the IC50 [9] was 150 nM. For the same molecule, the %max [1] was 39%, the %max [2] was 23% and the IC50 [10] was 520 nM. For the same molecule, the EC50 [11] was 980 nM, the IC50 [12] was 1100 nM and the %max [3] was 48%.

`C[C@H]1COC(=O)N1CC1(C2CCCCC2)CCN(C(=O)[C@@H](Cc2ccc(Cl)cc2)NC(=O)[C@H]2Cc3ccccc3CN2)CC1` gave an EC50 [4] of 8.6 nM, an EC50 [5] of 640 nM and a %max [6] of 90%. It also gave an EC50 [7] of 400 nM, an IC50 [8] of 4.5 nM and an IC50 [9] of 220 nM. For the same molecule, the %max [1] was 72%, the %max [2] was 19% and the IC50 [10] was 840 nM. It also gave an EC50 [11] of 2100 nM, an IC50 [12] of 2400 nM and a %max [3] of 53%.

For `O=C(N[C@H](Cc1ccc(Cl)cc1)C(=O)N1CCC(CN2C(=O)OCC23CCC3)(C2CCCCC2)CC1)[C@H]1Cc2ccccc2CN1`, the EC50 [4] was 15 nM, the %max [6] was 65% and the EC50 [7] was 1200 nM. The IC50 [8] was 7.9 nM, the IC50 [9] was 210 nM and the %max [1] was 25%. For the same molecule, the %max [2] was 6%, the IC50 [10] was 400 nM and the EC50 [11] was 1700 nM. The IC50 [12] was 2100 nM and the %max [3] was 32%.

Molecule `O=C(N[C@H](Cc1ccc(Cl)cc1)C(=O)N1CCC(CN2CCOC2=O)(C2CCCCC2)CC1)[C@H]1Cc2ccccc2CN1` has an EC50 [4] of 5.8 nM, a %max [6] of 76% and an EC50 [7] of 280 nM. For the same molecule, the IC50 [8] was 4 nM, the IC50 [9] was 180 nM and the %max [1] was 56%. For the same molecule, the %max [2] was 11%, the IC50 [10] was 460 nM and the EC50 [11] was 1300 nM. It also gave an IC50 [12] of 2000 nM and a %max [3] of 48%.

For `CC1(C)COC(=O)N1CC1(C2CCCCC2)CCN(C(=O)[C@@H](Cc2ccc(Cl)cc2)NC(=O)[C@H]2Cc3ccccc3CN2)CC1`, the EC50 [4] was 2.4 nM, the %max [6] was 82% and the EC50 [7] was 340 nM. For the same molecule, the IC50 [8] was 0.8 nM, the IC50 [9] was 80 nM and the %max [1] was 35%. For the same molecule, the %max [2] was 6%, the IC50 [10] was 230 nM and the EC50 [11] was 550 nM. For the same molecule, the IC50 [12] was 1100 nM and the %max [3] was 38%.

In the case of `O=C(N[C@H](Cc1ccc(Cl)cc1)C(=O)N1CCC(CN2C(=O)OCC23CC3)(C2CCCCC2)CC1)[C@H]1Cc2ccccc2CN1`, the EC50 [4] is reported as 6.1 nM, the EC50 [5] is reported as 990 nM and the %max [6] is reported as 68%. It also gave an EC50 [7] of 620 nM, an IC50 [8] of 4.6 nM and an IC50 [9] of 170 nM. It also gave a %max [1] of 48%, a %max [2] of 15% and an IC50 [10] of 490 nM. It also gave an EC50 [11] of 2600 nM, an IC50 [12] of 2400 nM and a %max [3] of 36%.

`CCOC(=O)N(CC1(C2CCCCC2)CCN(C(=O)[C@@H](Cc2ccc(Cl)cc2)NC(=O)[C@H]2Cc3ccccc3CN2)CC1)C(C)C` showed an EC50 [4] of 14 nM, an EC50 [5] of 550 nM and a %max [6] of 95%. For the same molecule, the EC50 [7] was 3600 nM, the IC50 [8] was 8.1 nM and the IC50 [9] was 630 nM. It also gave a %max [1] of 26%, a %max [2] of 37% and an IC50 [10] of 630 nM. For the same molecule, the EC50 [11] was 970 nM, the IC50 [12] was 1100 nM and the %max [3] was 51%.

`CN1CCN(CC2(C3CCCCC3)CCN(C(=O)[C@@H](Cc3ccc(Cl)cc3)NC(=O)[C@H]3Cc4ccccc4CN3)CC2)C1=O` was tested, and the EC50 [4] was 16 nM, the EC50 [5] was 1200 nM and the %max [6] was 88%. The EC50 [7] was 460 nM, the IC50 [8] was 4.3 nM and the IC50 [9] was 160 nM. The %max [1] was 43%, the %max [2] was 24% and the IC50 [10] was 660 nM. For the same molecule, the EC50 [11] was 950 nM, the IC50 [12] was 1800 nM and the %max [3] was 63%.

In the case of `O=C(N[C@H](Cc1ccc(Cl)cc1)C(=O)N1CCC(CN2CCCS2(=O)=O)(C2CCCCC2)CC1)[C@H]1Cc2ccccc2CN1`, the EC50 [4] is reported as 5.3 nM, the EC50 [5] is reported as 540 nM and the %max [6] is reported as 67%. It also gave an EC50 [7] of 660 nM, an IC50 [8] of 0.91 nM and an IC50 [9] of 170 nM. For the same molecule, the %max [1] was 41%, the %max [2] was 19% and the IC50 [10] was 310 nM. The EC50 [11] was 680 nM, the IC50 [12] was 1300 nM and the %max [3] was 41%.

In the case of `CC1(C)CCN(CC2(C3CCCCC3)CCN(C(=O)[C@@H](Cc3ccc(Cl)cc3)NC(=O)[C@H]3Cc4ccccc4CN3)CC2)S1(=O)=O`, the EC50 [4] is reported as 5.8 nM, the EC50 [5] is reported as 450 nM and the %max [6] is reported as 74%. It also gave an EC50 [7] of 850 nM, an IC50 [8] of 0.62 nM and an IC50 [9] of 190 nM. The %max [1] was 27%, the %max [2] was 18% and the IC50 [10] was 760 nM. The EC50 [11] was 460 nM, the IC50 [12] was 1200 nM and the %max [3] was 39%.

Reference: ChEMBL document CHEMBL1138149, “Optimization of a privileged structure leading to potent and selective human melanocortin subtype-4 receptor ligands” (Bioorg Med Chem Lett, 2006)
